Calls of active or inactive are those of the source.
Tests used:
[1] = target: T1, Alkaline phosphatase, tissue-nonspecific isozyme (Homo sapiens, UniProt P05186); experiment: TNAP enzyme inhibition by screening hits, dose response, selectivity assay for mouse IAP inhibitor project, biochemical, human TNAP, uHTS hits (AID 488906); assay type: functional
T1 sequence (P05186 whole entry): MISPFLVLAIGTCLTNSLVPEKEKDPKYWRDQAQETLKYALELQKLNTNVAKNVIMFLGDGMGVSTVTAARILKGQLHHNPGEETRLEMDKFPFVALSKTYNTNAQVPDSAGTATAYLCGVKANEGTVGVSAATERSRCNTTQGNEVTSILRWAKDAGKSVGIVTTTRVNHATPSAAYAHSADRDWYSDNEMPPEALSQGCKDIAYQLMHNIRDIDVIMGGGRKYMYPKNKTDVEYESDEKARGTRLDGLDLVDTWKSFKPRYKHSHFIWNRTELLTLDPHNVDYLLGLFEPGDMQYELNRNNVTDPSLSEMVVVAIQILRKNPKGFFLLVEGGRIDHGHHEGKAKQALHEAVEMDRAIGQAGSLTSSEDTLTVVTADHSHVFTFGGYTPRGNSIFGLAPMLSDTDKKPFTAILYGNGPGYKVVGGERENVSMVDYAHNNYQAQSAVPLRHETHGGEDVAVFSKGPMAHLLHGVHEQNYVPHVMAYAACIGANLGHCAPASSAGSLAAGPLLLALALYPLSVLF

[2] = target: Intestinal-type alkaline phosphatase (Mus musculus, UniProt P24822); experiment: PubChem AID 488785; assay type: functional
[3] = target: Intestinal-type alkaline phosphatase (Homo sapiens, UniProt P09923); experiment: inhibition of human intestinal alkaline phosphatase – biochemical, dose response (AID 488876); assay type: functional
[4] = target: Lysine-specific demethylase 4C (Homo sapiens, UniProt Q9H3R0); experiment: GASC-1 (JMJD2C) histone demethylase inhibitors, dose response, biochemical, DELFIA europium, cherry-picked samples (AID 488835); assay type: functional
cells [5] = assay type: functional, cell-based
cells [6] = assay type: functional, cell-based; remark: listed apart in the source
[7] = insulin promoter down-regulators in MIN6 cells, imaging, high-content screening, mouse beta cells (AID 1628); assay type: functional
[8] = control 3'UTR Renilla luciferase suppression, dose response, counter-screen for Shn3 inhibitor project, cell-based, Clone20-Shn3RL, cherry-picked (AID 624133); assay type: functional
Streptokinase A = target: T2, Streptokinase A (Streptococcus pyogenes serotype M1, UniProt P10520); experiment: S. pyogenes streptokinase expression inhibitors, potency, dose response, plasminogen activation absorbance, OD405 (AID 1914); assay type: functional, Streptococcus pyogenes M1 GAS;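 also: secreted streptokinase activity via plasminogen activation per viability signal from cell pellet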
T2 sequence (P10520 whole entry): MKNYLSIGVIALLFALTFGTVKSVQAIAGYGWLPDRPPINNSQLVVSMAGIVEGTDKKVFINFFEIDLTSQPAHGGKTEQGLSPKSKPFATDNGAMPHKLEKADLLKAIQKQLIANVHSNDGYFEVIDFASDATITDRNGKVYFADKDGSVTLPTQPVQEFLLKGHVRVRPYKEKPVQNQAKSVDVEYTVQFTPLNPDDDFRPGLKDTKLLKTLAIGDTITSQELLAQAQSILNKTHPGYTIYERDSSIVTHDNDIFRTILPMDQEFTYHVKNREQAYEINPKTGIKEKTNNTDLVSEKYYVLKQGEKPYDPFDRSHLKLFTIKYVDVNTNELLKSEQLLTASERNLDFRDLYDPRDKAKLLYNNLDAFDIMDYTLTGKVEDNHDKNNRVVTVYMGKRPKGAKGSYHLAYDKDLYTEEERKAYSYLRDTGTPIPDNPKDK

Streptococcus = experiment: Group A Streptococcus viability loss, dose response, counter-screen for streptokinase expression inhibitor project, luminescence, BacTiterGlo (AID 1915); assay type: functional, organism-based;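 also: potency for reduction of bacterial viability or growth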
[9] = HepG2 cell cytotoxicity, dose response, cytotoxicity control for Shn3 inhibitor project, CellTiter-Glo, cherry-picked (AID 624134); assay type: functional, cell-based
[10] = Shn3 3'UTR reporter inhibitors, dose response, cell-based, Clone20 osteoblasts, firefly luciferase, cherry-picked (AID 624132); assay type: functional;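 also: firefly luciferase luminescence from reporter carrying the Shn3 3'UTR in osteoblasts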
INS1 = experiment: beta cell apoptosis inhibitors, cytokine rescue, dose response, luminescence, retest (AID 449756); assay type: functional, cell-based; details: Rattus norvegicus, INS1;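 also: cell death triggered by IL-1 beta plus TNF-alpha plus IFN-gamma mixture; protective hits raise ATP signal compared with cytokine alone wells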
[11] = test system: Streptococcus sp. 'group A'; experiment: growth inhibition of control SK(-) GAS strain, dose response, counter-screen for streptokinase expression inhibitor project, luminescence, kanamycin, BacTiterGlo, confirmation (AID 1900); assay type: functional, organism-based
[12] = cytotoxicity in MIN6 insulinoma cells, dose response, cytotoxicity control, cell-based, mouse insulinoma (AID 2122); assay type: functional;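 also: confirmatory high-throughput counterscreen run to flag cytotoxic compounds; mouse MIN-6 beta cells carrying an insulin promoter eGFP reporter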
H9c2 = experiment: cells; assay type: functional, cell-based; details: Rattus norvegicus, H9c2, Myocardium;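 also: confirmatory concentration-response retest of ultra-high-throughput screening hits for modulation of myocardial damage; cell death induced by hydrogen peroxide oxidative stress; compound pretreatment for 60 min then peroxide exposure for 2 h; potency is for protecting the cells against peroxide damage rather than for killing them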
[13] = growth suppression of PTEN-null colon cells, dose response, cell-based, HCT116 PTEN knockout (AID 1047); assay type: functional;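 also: HCT116 colon tumor cells with PTEN knocked out; cells exposed to compound for 60 hours before readout; potency for loss of cell viability measured by luminescence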
[14] = growth suppression of beta-catenin-knockout colon cells, dose response, cell-based, HCT116, human colon tumor (AID 1045); assay type: functional;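 also: HCT116 colon tumor cells with beta catenin knocked out; cells exposed to compound for 60 hours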
HEK293 [15] = experiment: cells; details: Homo sapiens
HEK293 [16] = experiment: cells; details: Homo sapiens; remark: listed apart in the source
[17] = Luminescence Cell-Based Dose Retest to Confirm Inhibitors of Cancer Stem Cells. [Related pubchem assays (depositor defined):AID2717, AID2721]; assay type: functional; details: Homo sapiens
SUMO E1/E2 = SUMO E1/E2 (Homo sapiens, UniProt P63279+Q9UBE0+Q9UBT2); experiment: SAR analysis of SUMOylation using HTRF in an in-Vitro dose response assay. [Related pubchem assays (depositor defined):AID2006, AID2011, AID2018, AID2069, AID2658]; assay type: functional
Protein Wnt-3a = Protein Wnt-3a (Mus musculus, UniProt P27467); experiment: Wnt3a-driven reporter signaling inhibition, dose response, selectivity assay for Gli-SUFU antagonist project, Wnt-LIGHT cells, luminescence (AID 651570); assay type: functional; details: read-out: IC50_Mean;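 also: Wnt-LIGHT reporter cells stimulated with conditioned medium from Wnt3a-producing cells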
[18] = target: Voltage-dependent T-type calcium channel subunit alpha-1H (Homo sapiens, UniProt O95180); assay type: functional;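 also: channel activity triggered by adding a high calcium stimulation buffer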
[19] = target: T3, Ubiquitin-conjugating enzyme E2 N (Homo sapiens, UniProt P61088); assay type: functional
T3 sequence (P61088 whole entry): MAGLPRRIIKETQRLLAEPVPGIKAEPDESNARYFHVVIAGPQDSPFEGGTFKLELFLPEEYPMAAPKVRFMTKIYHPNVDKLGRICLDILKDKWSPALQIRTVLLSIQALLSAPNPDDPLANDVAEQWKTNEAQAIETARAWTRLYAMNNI

[20] = target: T3, Ubiquitin-conjugating enzyme E2 N; assay type: functional; remark: listed apart in the source
Bcl-2-related protein A1 = target: T4, Bcl-2-related protein A1 (Mus musculus, UniProt Q07440); assay type: functional;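 also: confirmatory dose–response counterscreen on Bfl-1, used to check hits from a UBC13 polyubiquitin inhibitor campaign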
T4 sequence (Q07440 whole entry): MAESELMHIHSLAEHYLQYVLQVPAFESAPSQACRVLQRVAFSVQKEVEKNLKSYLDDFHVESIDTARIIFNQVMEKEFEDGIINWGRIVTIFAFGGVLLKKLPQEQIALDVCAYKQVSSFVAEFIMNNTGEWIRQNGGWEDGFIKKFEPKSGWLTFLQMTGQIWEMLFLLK

SUMO E1/E2, sequence (Q9UBE0 whole entry): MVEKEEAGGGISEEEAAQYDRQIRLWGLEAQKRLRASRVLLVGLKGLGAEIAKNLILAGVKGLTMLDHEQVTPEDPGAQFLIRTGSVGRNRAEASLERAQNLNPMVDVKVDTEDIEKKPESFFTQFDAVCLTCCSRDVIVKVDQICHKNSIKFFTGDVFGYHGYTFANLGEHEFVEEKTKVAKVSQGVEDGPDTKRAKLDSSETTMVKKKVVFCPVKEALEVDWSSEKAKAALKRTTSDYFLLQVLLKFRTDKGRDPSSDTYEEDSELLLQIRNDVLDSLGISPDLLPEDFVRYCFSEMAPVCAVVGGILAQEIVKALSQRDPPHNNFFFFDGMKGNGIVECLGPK
SUMO E1/E2, sequence (Q9UBT2 whole entry): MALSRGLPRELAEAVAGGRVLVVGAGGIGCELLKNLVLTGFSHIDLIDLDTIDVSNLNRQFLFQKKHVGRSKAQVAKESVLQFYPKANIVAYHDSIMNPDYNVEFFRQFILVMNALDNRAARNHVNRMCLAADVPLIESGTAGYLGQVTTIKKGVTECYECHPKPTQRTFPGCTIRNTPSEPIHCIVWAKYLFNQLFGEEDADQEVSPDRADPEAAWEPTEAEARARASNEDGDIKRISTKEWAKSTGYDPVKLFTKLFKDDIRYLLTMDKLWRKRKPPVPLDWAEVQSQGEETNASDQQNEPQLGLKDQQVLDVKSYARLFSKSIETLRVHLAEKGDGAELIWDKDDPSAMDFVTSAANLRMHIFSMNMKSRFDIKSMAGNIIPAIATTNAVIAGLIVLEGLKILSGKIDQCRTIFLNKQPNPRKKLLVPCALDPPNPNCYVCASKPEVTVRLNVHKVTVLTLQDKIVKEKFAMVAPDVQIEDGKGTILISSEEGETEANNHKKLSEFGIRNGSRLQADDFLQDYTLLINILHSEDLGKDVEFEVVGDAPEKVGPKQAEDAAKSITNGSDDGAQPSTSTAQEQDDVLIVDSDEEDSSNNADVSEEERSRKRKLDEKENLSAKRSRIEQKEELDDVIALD
SUMO E1/E2, sequence (P63279 whole entry): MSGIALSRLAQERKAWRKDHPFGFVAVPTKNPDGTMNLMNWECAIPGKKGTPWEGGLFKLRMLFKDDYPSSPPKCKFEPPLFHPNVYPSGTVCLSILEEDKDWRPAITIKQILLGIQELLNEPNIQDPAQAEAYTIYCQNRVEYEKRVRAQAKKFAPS
Protein Wnt-3a, sequence (P27467 whole entry): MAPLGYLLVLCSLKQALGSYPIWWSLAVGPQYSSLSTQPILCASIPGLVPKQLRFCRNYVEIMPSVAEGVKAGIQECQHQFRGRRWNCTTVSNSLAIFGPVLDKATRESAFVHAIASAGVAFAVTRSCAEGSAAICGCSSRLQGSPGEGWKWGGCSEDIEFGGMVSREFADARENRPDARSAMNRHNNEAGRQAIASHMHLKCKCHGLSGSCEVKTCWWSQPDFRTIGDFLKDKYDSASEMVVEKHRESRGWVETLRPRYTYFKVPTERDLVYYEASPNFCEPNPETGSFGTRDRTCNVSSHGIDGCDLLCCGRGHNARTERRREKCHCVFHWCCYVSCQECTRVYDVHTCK
Intestinal-type alkaline phosphatase (Homo sapiens, UniProt P09923), sequence (P09923 whole entry): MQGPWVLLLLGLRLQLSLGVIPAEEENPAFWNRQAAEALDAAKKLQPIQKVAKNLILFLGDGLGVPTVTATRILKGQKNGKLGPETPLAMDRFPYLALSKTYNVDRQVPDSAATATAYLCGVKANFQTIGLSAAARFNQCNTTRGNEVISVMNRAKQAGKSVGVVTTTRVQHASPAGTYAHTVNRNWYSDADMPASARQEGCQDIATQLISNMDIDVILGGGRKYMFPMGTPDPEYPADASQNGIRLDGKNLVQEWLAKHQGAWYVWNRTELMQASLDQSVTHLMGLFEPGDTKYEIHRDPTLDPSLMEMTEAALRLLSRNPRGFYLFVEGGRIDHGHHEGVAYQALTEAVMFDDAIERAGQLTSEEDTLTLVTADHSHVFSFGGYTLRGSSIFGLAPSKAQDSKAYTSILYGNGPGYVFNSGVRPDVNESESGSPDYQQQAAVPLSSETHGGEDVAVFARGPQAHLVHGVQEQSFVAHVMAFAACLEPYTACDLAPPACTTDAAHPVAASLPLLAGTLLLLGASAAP
Voltage-dependent T-type calcium channel subunit alpha-1H, sequence (O95180 whole entry): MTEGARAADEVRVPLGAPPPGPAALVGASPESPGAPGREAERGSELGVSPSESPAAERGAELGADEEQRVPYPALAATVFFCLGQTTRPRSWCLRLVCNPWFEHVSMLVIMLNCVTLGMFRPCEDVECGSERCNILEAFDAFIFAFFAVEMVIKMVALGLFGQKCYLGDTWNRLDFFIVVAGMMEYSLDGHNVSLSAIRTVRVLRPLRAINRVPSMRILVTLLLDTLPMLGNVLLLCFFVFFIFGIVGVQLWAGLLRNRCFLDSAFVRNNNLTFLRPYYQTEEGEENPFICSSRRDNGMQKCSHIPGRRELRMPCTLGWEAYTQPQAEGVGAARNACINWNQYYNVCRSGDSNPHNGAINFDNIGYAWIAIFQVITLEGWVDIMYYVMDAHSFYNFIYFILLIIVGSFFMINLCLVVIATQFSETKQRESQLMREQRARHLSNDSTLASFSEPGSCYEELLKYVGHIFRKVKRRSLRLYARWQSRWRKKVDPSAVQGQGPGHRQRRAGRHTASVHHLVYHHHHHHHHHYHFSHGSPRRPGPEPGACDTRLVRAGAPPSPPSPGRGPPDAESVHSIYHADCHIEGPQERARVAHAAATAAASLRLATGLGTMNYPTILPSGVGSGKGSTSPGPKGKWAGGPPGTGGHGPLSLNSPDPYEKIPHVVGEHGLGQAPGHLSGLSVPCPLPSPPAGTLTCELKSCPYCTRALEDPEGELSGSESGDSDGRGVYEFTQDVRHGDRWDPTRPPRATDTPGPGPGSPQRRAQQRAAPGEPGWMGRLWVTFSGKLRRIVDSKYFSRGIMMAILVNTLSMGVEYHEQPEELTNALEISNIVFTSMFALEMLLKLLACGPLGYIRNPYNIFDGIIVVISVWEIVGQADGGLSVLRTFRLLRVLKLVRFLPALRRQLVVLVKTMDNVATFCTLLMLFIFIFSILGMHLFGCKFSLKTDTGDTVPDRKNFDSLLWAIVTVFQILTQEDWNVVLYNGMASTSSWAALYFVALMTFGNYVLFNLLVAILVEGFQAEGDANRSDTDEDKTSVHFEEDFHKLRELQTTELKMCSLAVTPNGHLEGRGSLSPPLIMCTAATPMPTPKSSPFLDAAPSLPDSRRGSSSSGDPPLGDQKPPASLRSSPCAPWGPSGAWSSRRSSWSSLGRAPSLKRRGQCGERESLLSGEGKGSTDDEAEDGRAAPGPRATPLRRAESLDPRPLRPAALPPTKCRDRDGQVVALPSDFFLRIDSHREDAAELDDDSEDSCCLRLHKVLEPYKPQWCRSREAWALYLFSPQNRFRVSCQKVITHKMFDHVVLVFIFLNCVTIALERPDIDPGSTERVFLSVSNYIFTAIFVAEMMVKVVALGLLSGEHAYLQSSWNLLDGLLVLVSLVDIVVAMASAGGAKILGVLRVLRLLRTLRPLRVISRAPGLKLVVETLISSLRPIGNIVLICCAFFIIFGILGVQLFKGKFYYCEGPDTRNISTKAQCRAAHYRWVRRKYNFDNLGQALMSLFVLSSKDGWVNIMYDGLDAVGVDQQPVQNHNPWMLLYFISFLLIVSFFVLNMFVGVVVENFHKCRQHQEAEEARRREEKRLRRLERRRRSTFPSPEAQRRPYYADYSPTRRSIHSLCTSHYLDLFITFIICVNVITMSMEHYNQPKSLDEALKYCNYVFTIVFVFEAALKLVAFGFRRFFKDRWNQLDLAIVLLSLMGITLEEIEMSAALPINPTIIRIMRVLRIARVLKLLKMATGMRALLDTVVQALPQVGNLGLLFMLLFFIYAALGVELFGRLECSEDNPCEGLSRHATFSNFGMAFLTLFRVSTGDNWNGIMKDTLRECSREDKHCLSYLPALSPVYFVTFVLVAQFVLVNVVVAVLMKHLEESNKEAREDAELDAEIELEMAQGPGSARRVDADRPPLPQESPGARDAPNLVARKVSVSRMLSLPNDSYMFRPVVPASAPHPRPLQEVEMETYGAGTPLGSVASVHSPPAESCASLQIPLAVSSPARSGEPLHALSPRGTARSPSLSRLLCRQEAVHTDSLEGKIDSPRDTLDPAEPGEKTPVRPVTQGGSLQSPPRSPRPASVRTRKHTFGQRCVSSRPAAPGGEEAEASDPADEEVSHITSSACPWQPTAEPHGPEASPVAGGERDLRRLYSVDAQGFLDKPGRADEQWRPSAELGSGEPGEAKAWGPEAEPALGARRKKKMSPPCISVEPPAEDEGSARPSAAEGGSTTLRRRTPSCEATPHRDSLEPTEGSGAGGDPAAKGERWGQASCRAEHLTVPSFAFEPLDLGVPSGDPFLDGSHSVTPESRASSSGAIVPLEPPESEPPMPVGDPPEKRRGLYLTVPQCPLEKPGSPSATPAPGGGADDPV
Intestinal-type alkaline phosphatase (Mus musculus, UniProt P24822), sequence (P24822 whole entry): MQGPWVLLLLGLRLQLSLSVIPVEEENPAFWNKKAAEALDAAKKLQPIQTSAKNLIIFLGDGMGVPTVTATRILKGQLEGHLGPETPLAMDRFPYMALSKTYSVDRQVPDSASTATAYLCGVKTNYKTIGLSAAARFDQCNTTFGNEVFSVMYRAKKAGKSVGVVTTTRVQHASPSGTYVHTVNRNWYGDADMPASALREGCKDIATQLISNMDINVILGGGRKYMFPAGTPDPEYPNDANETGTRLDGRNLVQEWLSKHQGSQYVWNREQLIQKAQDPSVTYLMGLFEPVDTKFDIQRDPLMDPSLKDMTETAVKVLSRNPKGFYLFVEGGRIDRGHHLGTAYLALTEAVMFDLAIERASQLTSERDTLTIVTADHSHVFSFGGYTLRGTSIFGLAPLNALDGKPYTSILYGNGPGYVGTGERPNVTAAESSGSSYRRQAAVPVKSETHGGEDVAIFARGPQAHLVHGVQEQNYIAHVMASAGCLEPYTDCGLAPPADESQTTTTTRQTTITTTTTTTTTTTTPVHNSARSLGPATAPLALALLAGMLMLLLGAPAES

Cc1ccc(C)c(NC(=O)CCNS(=O)(=O)c2ccc3[nH]c(=O)oc3c2)c1
IC50 [1]: 22.6 µM (active)
IC50 [2]: 5.21 µM (active)
IC50 [3]: > 100 µM (inactive)

COc1ccc(NC(=O)CNC(=O)c2nn(-c3ccc(OC)c(Cl)c3)c(=O)c3ccccc23)c(OC)c1
AC50 [4]: 21.5 µM (active)

O=C(Nc1nc(-c2ccccn2)cs1)c1cccc(-n2cnnn2)c1
EC50 (cells [5]): > 350 µM (not active)
EC50 (cells [6]): > 350 µM (not active)
IC50 [7]: 2.43 µM (active)
AC50 [8]: 2.43 µM (active)
EC50 (Streptokinase A): > 150 µM (not active)
EC50 (Streptococcus): > 150 µM (not active)
AC50 [9]: 8.31 µM (active)
AC50 [10]: 2.58 µM (active)
AC50 (INS1): 1.56 µM (active)
EC50 [11]: 24.7 µM (active)
IC50 [12]: 2.54 µM (active)
IC50 (H9c2): > 79 µM (inactive)

O=C(NCCC1=CCCCC1)c1coc(=O)c(Br)c1
EC50 [13]: 28.9 µM (active)
EC50 [14]: 28.6 µM (active)
EC50 (HEK293 [15]): > 59.6 µM (inactive)
EC50 (HEK293 [16]): > 59.6 µM (inactive)
AC50 [17]: 6.05 µM (active)

O=c1c2ccccc2nc(COc2ccccc2)n1N=Cc1cc([N+](=O)[O-])ccc1O
IC50 (SUMO E1/E2): 43.7 µM (active)

CCCOc1ccccc1N=C(NC(=O)COc1ccc(OC)cc1)Nc1nc(C)cc(C)n1
IC50 (Protein Wnt-3a): 6.39 µM (active)
IC50 [7]: 2.3 µM (active)
EC50 [18]: 8.53 µM (active)
AC50 [8]: 6.58 µM (active)
AC50 [9]: 49.3 µM (active)
AC50 [10]: 3.24 µM (active)
IC50 [12]: 3.16 µM (active)

COc1ccccc1NC(=O)CN1CCC(n2c(C)nc3cc(F)ccc32)CC1
EC50 (HEK293 [15]): > 59.6 µM (inactive)
IC50 [19]: 1.78 µM (active)
IC50 [20]: 1.53 µM (active)
EC50 (HEK293 [16]): > 59.6 µM (inactive)
IC50 (Bcl-2-related protein A1): > 20 µM (inactive)
